Measurements as given in patent publication US10815197B2, “N-sulfonyl benzamides as voltage-gated sodium channel inhibitors” (SHANGHAI HAIYAN PHARMACEUTICAL TECHNOLOGY CO., LTD., priority 2016, dated 2020).
“Also recorded” adds a separate entry of the source.

Columns and labels:
[1] = tested on: SNL-induced cold allodynia in rats; assay: Cold allodynia in SNL (spinal nerve ligation) rats; type: in vivo, rat
From the text: Assay 3: Cold Allodynia in SNL
The experimental animals were male Sprague-Dawley rats, weighing 140-150 g at the beginning of the experiment. The animals were purchased from Slack company, and food and water were supplied ad lib after purchase. Rats were group-housed, four rats/cage, and individually identified by marking on the tail.
Test Compound and Grouping:
Vehicle: 5% dimethylacetamide(Sinopharm Technology), 5% solutol (Sigma) and 90% saline
Positive control: Pregabalin;
Test compound: compound Z-164;
The positive control and solvent composition of the test compound are 5% dimethylacetamide, 5% solutol and 90% saline.
30 mg/kg Compound Z-164:1.23 mL of dimethylacetamide was added to 148.11 mg of compound Z-164, stirred well until fully dissolved, and then 1.23 mL solutol was added and mixed well. Final volume was made up with 90% saline to 21.44 mL and mixed well before oral administration.
30 mg/kg Pregabalin: 1.08 mL of dimethylacetamide was added to 129.48 mg of Pregabalin, stirred well until fully dissolved, and then 1.08 mL solutol was added and mixed well. Final volume was made up with 90% saline to 21.58 mL and mixed well before oral administration.
1.1. Spinal Nerve Ligation (SNL) model • Surgical procedures are performed aseptically. • The surgical instruments (scissors, tweezers, scalpels, surgical cotton, sutures, retractor) are sterilized prior to surgery. • Animals were anesthetized with pentobarbital (50 mg/kg, i.p.). A toe pinch was used to ensure that the animals were fully anesthetized prior to surgery. Put ophthalmic ointment in the animal's eyes to prevent the corneas from drying out. • The fur on the surgical area of animal's lower body was shaved, and the skin of the surgical area was swabbed with 3 rounds of Betadine and 70% ethanol. The skin was allowed to dry before surgery. • A longitudinal incision will be made by scalpel at the lower lumbar and sacral levels, exposing the paraspinal muscles on the left side. The retractor was used to separate the muscles and tissues to expose the vertebra. • The left L5 and L6 spinal nerves will be isolated and tightly ligated with 6-0 silk thread. • The wound was closed with sutures. • The surgical instruments were cleaned, and sterilized by using a glass bead sterilizer. • Animals were placed on the electric blanket after surgery. Inject 5 ml sterile saline to prevent dehydration. The animals were returned to their home cage after fully awake (walking around).
1.2. Baseline Test of Cold Allodynic and Grouping
The baseline of cold allodynic was measured in rats two days before dosing. Use a pipette to apply 100 μl of acetone to the animal's lateral hind paw skin and the time of slapping, flinching, lifting, licking of the affected paw were recorded for one minute. Acetone was applied twice in total and the two applications were 10 minutes apart. The sum of the two times was recorded as cold allodynic time in rats. The rats were grouped randomized according to the results of baseline test of cold allodynic the day before dosing.
1.3. Cold Allodynic Testing
A pipette was used to apply 100 μl of acetone to the animal's lateral hind paw skin two hours after dosing and the time of slapping, flinching, lifting, licking of the affected paw were recorded for one minute. Acetone was applied twice and the two applications were 10 minutes apart. The sum of the two times was recorded as cold allodynic time in rats.
Oral administration was performed two hours before cold allodynic testing.
1.5. Data Collection and Analysis
Data were collected with Excel and analyzed with Prism.

hNav1.5 = target: T1, hNav1.5 (Homo sapiens, UniProt Q14524); assay: Manual patch clamp experiment hNav1.5 (HEK-hNav1.5 stable cell line); type: cell-based; conditions: read-out: Nav1.5(IC50/nM)
T1 construct: host or cells: HEK
From the text: Assay 1: Manual Patch Clamp Experiment of Sodium Ion (hNav1.7, hNav1.5 and hNaV1.8) and Calcium Ion (hCav3.2) Channels
hNav1.7, hNav1.5 Manual Patch Clamp Experiment:
Patch voltage clamp electrophysiology allows for the direct measurement and quantification of current block of voltage-gated sodium channels (NaV's), and allows the determination of the time and voltage-dependence of block which has been interpreted as differential binding to the resting, open and inactivated states of the sodium channel to reflect the compound's inhibitory or activating effects (Hille, B., Journal of General Physiology (1977), 69: 497-515).
Representative compounds of the present invention were subject to a manual patch clamp experiment and the purpose of this study was to test the effect of compounds on this ion channel current on a stable cell line transfected with a specific ion channel using a manual patch clamp method. The used stable cell lines CHO-hNav1.7 and HEK-hNav1.5 were from Genionics and WuXi Apptec (Shanghai) respectively.
Manual patch clamp experimental program is as follows: […]
The time intervals of these two voltage stimulation programs were 10 s. The inhibitory effect of the compound was calculated by the change of the current before and after dosing, the IC50 value was fitted by the Hill equation.

[2] = 30 mg/kg p.o., two hours after dosing

T1 sequence (Q14524 whole entry): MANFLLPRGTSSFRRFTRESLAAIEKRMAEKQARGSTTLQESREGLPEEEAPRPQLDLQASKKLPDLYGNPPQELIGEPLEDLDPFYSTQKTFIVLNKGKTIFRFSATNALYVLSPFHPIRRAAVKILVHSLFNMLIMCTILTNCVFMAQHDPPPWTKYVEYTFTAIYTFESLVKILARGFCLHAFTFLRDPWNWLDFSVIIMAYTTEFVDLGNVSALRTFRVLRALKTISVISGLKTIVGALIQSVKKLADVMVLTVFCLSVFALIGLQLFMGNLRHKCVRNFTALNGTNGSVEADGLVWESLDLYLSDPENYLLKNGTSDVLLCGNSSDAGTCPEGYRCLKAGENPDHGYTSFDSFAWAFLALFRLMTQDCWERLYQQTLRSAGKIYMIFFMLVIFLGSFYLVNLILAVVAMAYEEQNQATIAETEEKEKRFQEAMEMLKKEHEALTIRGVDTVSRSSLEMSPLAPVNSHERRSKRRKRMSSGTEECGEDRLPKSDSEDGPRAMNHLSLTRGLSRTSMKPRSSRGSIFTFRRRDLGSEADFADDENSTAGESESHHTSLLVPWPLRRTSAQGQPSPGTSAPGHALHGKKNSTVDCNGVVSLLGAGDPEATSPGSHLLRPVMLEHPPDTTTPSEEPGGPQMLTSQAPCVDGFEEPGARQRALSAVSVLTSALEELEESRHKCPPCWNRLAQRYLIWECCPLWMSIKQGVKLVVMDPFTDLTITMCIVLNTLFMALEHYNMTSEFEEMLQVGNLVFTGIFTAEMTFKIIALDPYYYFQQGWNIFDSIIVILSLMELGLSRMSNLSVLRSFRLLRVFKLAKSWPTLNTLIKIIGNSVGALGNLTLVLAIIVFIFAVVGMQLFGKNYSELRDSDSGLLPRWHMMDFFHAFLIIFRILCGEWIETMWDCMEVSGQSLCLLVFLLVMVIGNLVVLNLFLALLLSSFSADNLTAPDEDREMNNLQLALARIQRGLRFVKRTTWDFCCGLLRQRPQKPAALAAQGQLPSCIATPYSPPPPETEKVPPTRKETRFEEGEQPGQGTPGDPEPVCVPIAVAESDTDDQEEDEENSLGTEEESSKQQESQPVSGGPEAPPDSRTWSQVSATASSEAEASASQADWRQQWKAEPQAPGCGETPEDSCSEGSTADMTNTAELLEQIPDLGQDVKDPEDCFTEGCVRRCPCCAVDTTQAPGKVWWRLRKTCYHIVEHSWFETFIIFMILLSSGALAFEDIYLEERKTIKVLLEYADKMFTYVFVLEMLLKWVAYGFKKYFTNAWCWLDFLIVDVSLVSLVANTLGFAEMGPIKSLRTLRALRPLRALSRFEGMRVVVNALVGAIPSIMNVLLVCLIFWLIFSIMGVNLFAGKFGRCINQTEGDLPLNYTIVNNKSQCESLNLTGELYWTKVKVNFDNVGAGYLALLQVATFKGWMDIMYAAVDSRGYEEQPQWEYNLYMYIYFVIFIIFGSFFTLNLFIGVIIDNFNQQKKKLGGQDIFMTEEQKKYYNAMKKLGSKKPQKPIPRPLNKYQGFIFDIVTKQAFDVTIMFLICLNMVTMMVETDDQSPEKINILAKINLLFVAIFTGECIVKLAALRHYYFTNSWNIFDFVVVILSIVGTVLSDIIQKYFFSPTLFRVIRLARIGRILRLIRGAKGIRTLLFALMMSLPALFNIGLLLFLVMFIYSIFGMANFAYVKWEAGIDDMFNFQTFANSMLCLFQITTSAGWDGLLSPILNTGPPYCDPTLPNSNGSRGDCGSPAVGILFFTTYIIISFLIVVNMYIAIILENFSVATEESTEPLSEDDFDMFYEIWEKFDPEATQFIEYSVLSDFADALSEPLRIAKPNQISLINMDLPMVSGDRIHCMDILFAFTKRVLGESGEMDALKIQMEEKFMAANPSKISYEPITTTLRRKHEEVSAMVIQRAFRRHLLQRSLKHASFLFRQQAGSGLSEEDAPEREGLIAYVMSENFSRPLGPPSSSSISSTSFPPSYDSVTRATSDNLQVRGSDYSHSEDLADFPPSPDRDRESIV

Cc1cc(N2CCN(Cc3cc(F)c(C(=O)NS(=O)(=O)C4CC4)cc3Cl)CC2)ccc1Cl [Compound Z-164]
Anti-allodynia Effect (mean, %) [1, 2]: 39.7%
Response duration (mean, s) the next day (Baseline) [1, 2]: 24.327 s
inhibition of SNL-induced cold allodynia (in words) ([1]; 30 mg/kg, 2 hr post oral administration): statistically significant inhibitory effect; also recorded: inhibition of SNL-induced cold allodynia
Response duration (mean, s) the first day (Baseline) ([1]; acetone cold allodynia, baseline before dosing): 36.831 s
IC50 (hNav1.5): 6160 nM
